# Values joined by “and” are separate entries in the source; they are usually repeats but may differ in a detail not shown here. Equal values may be shown once. Toxic doses and inconclusive results are not listed.
# Tested on: L1210 leukemia ip in BDF1 mice, survival T/C
# Assay: NCI In Vivo Anticancer Drug Screen. Data for tumor model L1210 Leukemia (intraperitoneal) in B6D2F1 (BDF1) mice
# Conditions: endpoint: mean survival time, higher = longer survival
# How it was run: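 Read-out is survival time, reported as the treated-group measurement over the vehicle-control measurement.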
# [1] = dose: 100.0 mg/kg/injection, schedule: Q01DX009 (ip), vehicle: saline with Tween-80
# [2] = dose: 200.0 mg/kg/injection, schedule: Q01DX009 (ip), vehicle: saline with Tween-80
# [3] = dose: 400.0 mg/kg/injection, schedule: Q01DX009 (ip), vehicle: saline with Tween-80
# [4] = dose: 100.0 mg/kg/injection, schedule: Q01DX009 (ip), vehicle: saline
# [5] = dose: 100.0 mg/kg/injection, schedule: Q04DX003 (ip), vehicle: saline
# [6] = dose: 200.0 mg/kg/injection, schedule: Q04DX003 (ip), vehicle: saline
# [7] = dose: 400.0 mg/kg/injection, schedule: Q04DX003 (ip), vehicle: saline
# [8] = dose: 100.0 mg/kg/injection, schedule: Q01DX001 (ip), vehicle: saline with Tween-80
# [9] = dose: 200.0 mg/kg/injection, schedule: Q01DX001 (ip), vehicle: saline with Tween-80
# [10] = dose: 100.0 mg/kg/injection, schedule: Q04DX002 (ip), vehicle: saline with Tween-80
# [11] = dose: 200.0 mg/kg/injection, schedule: Q04DX002 (ip), vehicle: saline with Tween-80
# [12] = dose: 400.0 mg/kg/injection, schedule: Q04DX002 (ip), vehicle: saline with Tween-80
# [13] = dose: 100.0 mg/kg/injection, schedule: Q04DX003 (ip), vehicle: saline with Tween-80
# [14] = dose: 200.0 mg/kg/injection, schedule: Q04DX003 (ip), vehicle: saline with Tween-80
# [15] = dose: 100.0 mg/kg/injection, schedule: Q01DX009 (ip), vehicle: Klucel (hydroxypropylcellulose) (HPC)
# [16] = dose: 200.0 mg/kg/injection, schedule: Q01DX009 (ip), vehicle: Klucel (hydroxypropylcellulose) (HPC)
# [17] = dose: 100.0 mg/kg/injection, schedule: Q04DX003 (ip), vehicle: Klucel (hydroxypropylcellulose) (HPC)
# [18] = dose: 200.0 mg/kg/injection, schedule: Q04DX003 (ip), vehicle: Klucel (hydroxypropylcellulose) (HPC)
# [19] = dose: 400.0 mg/kg/injection, schedule: Q01DX009 (ip), vehicle: Klucel (hydroxypropylcellulose) (HPC)
# [20] = dose: 400.0 mg/kg/injection, schedule: Q04DX003 (ip), vehicle: Klucel (hydroxypropylcellulose) (HPC)
compound,measurement,setting,value
CC(C)CC1(C)NC(=O)NC1=O (configuration not stated),T/C,[1],97 % of control
same,T/C,[2],102 % of control
same,T/C,[3],97 % of control
CCc1c[n+]([O-])c(C)cc1[N+](=O)[O-],T/C,[4],108 % of control
same,T/C,[5],101 % of control
same,T/C,"dose: 200.0 mg/kg/injection, schedule: Q01DX009 (ip), vehicle: saline",101 % of control
same,T/C,[6],122 % of control
same,T/C,[7],95 % of control
O=C1Nc2ccccc2C12Nc1cccnc1N2 (configuration not stated),T/C,[8],97 % of control
same,T/C,[9],87 % of control
Cc1cn[nH]c1-c1ccccc1O,T/C,[10],96 % of control
same,T/C,[11],100 % of control
same,T/C,[12],100 % of control
O=C1c2ccccc2C(Br)(c2ccccc2)C1Br (configuration not stated),T/C,"dose: 12.5 mg/kg/injection, schedule: Q01DX009 (ip), vehicle: other",93 % of control
same,T/C,"dose: 25.0 mg/kg/injection, schedule: Q01DX009 (ip), vehicle: other",89 % of control
O=CO.[Cd],T/C,"dose: 5.0 mg/kg/injection, schedule: Q01DX001 (ip), vehicle: saline",104 % of control
CC(C)C1C(=O)N2CCCC2C2(O)OC(NC(=O)C3C=C4c5cccc6[nH]cc(c56)CC4N(C)C3)(C(C)C)C(=O)N12 (configuration not stated),T/C,"dose: 25.0 mg/kg/injection, schedule: Q01DX009 (ip), vehicle: saline",94 % of control
same,T/C,"dose: 50.0 mg/kg/injection, schedule: Q01DX009 (ip), vehicle: saline",91 % of control
same,T/C,"dose: 50.0 mg/kg/injection, schedule: Q04DX003 (ip), vehicle: saline",106 % of control
same,T/C,[4],94 % of control
same,T/C,[5],101 % of control
same,T/C,[6],108 % of control
same,T/C,[7],95 % of control
CC1(C(Cl)(Cl)Cl)C=CC(=NO)C=C1 (configuration not stated),T/C,[13],110 % of control
same,T/C,[14],101 % of control
Cc1ccc(NC(=O)C(Cl)Cl)cc1Cl,T/C,"dose: 50.0 mg/kg/injection, schedule: Q01DX009 (ip), vehicle: Klucel (hydroxypropylcellulose) (HPC)",103 % of control
same,T/C,[15],107 % of control
same,T/C,[16],98 % of control
OC(C#Cc1ccccc1)c1ccccc1 (configuration not stated),T/C,"dose: 50.0 mg/kg/injection, schedule: Q01DX009 (ip), vehicle: saline with Tween-80",105 % of control
same,T/C,[1],100 % of control
same,T/C,[13],95 % of control
same,T/C,[2],88 % of control and 89 % of control
same,T/C,[14],101 % of control
same,T/C,[3],98 % of control
CCCCCCCCCCCCCCCCCOc1ccc2ccccc2c1,T/C,[8],87 % of control
same,T/C,[9],89 % of control
CC(C)(C)c1cc(C=O)cc(C(C)(C)C)c1O,T/C,[10],95 % of control
same,T/C,[11],95 % of control
same,T/C,[12],91 % of control
C#CCN(C)/N=N/c1nc[nH]c1C(N)=O,T/C,"dose: 50.0 mg/kg/injection, schedule: Q04DX003 (ip), vehicle: Klucel (hydroxypropylcellulose) (HPC)",104 % of control
same,T/C,[15],157 % of control
same,T/C,[17],109 % of control and 116 % of control
same,T/C,[16],118 % of control
same,T/C,[18],108 % of control
same,T/C,[19],88 % of control
same,T/C,[20],117 % of control
O=c1ccccn1C/C(=N\O)c1ccccc1,T/C,[15],98 % of control
same,T/C,[17],107 % of control
same,T/C,[16],100 % of control
same,T/C,[18],98 % of control
same,T/C,[19],107 % of control
same,T/C,[20],100 % of control

# — PubChem BioAssay AID248 (DTP/NCI, 2004)
